# Laboratory results: US11479804B1 (priority 2010, dated 2022)
# “Also recorded” adds a separate entry of the source.
# Columns and labels:
# acetylcholinesterase [1] = molecular target: T1, acetylcholinesterase (Homo sapiens, UniProt P22303); type: biochemical
# acetylcholinesterase [2] = molecular target: T1, acetylcholinesterase; assay: Acetylcholinesterase assay with malaoxon in complex samples (apple juice, whole milk, soil) using GEMBE; type: biochemical; conditions: for LOD in filtered apple juice: filtered apple juice (10× dilution); for LOD in soil: soil added as a slurry to the sample reservoir; for LOD in whole milk: whole milk (10× dilution)
# Description: (§1) Assay Conditions in Apple Juice. A running buffer was prepared consisting of 4-(2-hydroxyethyl)-1-piperazineethanesulfonic acid, i.e. HEPES, at a concentration of ˜100 mM and 2-[Bis(2-hydroxyethyl)amino]-2-(hydroxymethyl)-1,3-propanediol, i.e. BIS-TRIS, at a concentration of ˜100 mM. The running buffer was prepared at pH ˜7.1. EOTrol™ HR (Target Discovery, Palo Alto, Calif.) was added to the run buffer as a dynamic coating to reverse the direction of EOF at a concentration of 1% (by volume).
# (§2) Prior to reaction, the surface of a polyoxymethylene sample reservoir (Delrin, DuPont, Wilmington, Del.) was passivated with bovine serum albumin (˜2 mg/mL). A sample containing malaoxon (˜1 mM) in filtered apple juice (10× dilution) was added to the sample reservoir. Acetylcholine (˜500 μM) and acetylcholinesterase (˜10.4 nM) were added to the sample reservoir and were allowed to incubate for ˜5 min.
# as §1, with “Whole Milk.” for “Apple Juice.”
# as §2, with “(2” for “(˜2”, “whole milk (4% milk fat, Giant Food) at a dilution of 10×” for “filtered apple juice (10× dilution)”, “minutes.” for “min.”
# as §1, with “Soil.” for “Apple Juice.”
# Prior to reaction, the surface of a polyoxymethylene sample reservoir (Delrin, DuPont, Wilmington, Del.) was passivated with bovine serum albumin (2 mg/mL). A sample containing malaoxon (˜1 mM) in soil was added as a slurry to the sample reservoir. Acetylcholine (˜500 μM) and acetylcholinesterase (˜10.4 nM) were added to the sample reservoir and were allowed to incubate for ˜5 min.
# Separation of Acetylcholine and Choline Using Gradient Elution Moving Boundary Electrophoresis. The reaction mixtures were separately introduced into the inlet end of the separation channel of a GEMBE device, wherein a voltage of ˜−2000V was applied on the waste chamber. During the GEMBE separation, the pressure applied to the run buffer reservoir was varied from about 6,000 Pa to about −8,000 Pa at a rate of −300 Pa/s. The concentration of choline was detected and quantified.
# [3] = acetylcholine ~500 μM, acetylcholinesterase ~10.4 nM
# T1 sequence (P22303 32-614): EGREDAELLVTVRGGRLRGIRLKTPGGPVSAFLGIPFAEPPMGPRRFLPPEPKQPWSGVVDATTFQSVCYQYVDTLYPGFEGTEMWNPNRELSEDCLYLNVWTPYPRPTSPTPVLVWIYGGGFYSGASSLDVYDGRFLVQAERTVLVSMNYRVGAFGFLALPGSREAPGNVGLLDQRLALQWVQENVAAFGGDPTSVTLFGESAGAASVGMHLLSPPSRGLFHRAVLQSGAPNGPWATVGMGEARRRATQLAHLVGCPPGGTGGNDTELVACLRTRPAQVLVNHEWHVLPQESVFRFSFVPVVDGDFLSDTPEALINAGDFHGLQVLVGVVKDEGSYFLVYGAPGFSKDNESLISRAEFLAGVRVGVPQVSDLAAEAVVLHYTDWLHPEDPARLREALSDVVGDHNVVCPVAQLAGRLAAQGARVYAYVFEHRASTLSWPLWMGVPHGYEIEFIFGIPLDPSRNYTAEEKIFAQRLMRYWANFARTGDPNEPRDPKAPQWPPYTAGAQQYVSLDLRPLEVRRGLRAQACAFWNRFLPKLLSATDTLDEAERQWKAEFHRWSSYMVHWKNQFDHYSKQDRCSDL
smiles,measurement,setting,value
CCOC(=O)CC(SP(=O)(OC)OC)C(=O)OCC (stereo not drawn) [malaoxon],concentration of choline formed (inhibition of acetylcholinesterase),acetylcholinesterase [1],a decrease in the concentration of choline was observed; also recorded: the concentration of choline does not increase over time
same,limit of detection (LOD),acetylcholinesterase [1],87.7 ppb
same,limit of detection (LOD) from conversion rate of acetylcholine to choline,acetylcholinesterase [1],~279 nM
same,LOD in filtered apple juice,acetylcholinesterase [2],85.6 ppb
same,LOD in filtered apple juice,acetylcholinesterase [2]; [3],~2.72e-07 M
same,LOD in soil,acetylcholinesterase [2],1.5 ppm
same,LOD in soil,acetylcholinesterase [2]; [3],~4.93e-06 M
same,LOD in whole milk,acetylcholinesterase [2],82.0 ppb
same,LOD in whole milk,acetylcholinesterase [2]; [3],~2.61e-07 M
